Results published in ChEMBL document CHEMBL4842331, “Targeted Discovery of the Polyene Macrolide Hexacosalactone A from Streptomyces by Reporter-Guided Selection of Fermentation Media” (J Nat Prod, 2021).
In brackets after ≈: the same amount, converted by molar mass. Activity calls are given as the source filed them. The calls are words filed in the database; no cut-off is given here.

What was measured:
Alternaria alternata = test: Antifungal activity against Alternaria alternata assessed as inhibition of fungal growth at 20 ug/disk by paper disk diffusion method; assay type: functional, organism-based; details: dose 20.0 µg
Salmonella typhimurium = test: Antibacterial activity against Salmonella enterica serovar typhimurium UK-1X8956 assessed as inhibition of bacterial growth at 20 ug/disk by paper disk diffusion method; assay type: functional, organism-based; details: Salmonella enterica subsp. enterica serovar Typhimurium, dose 20.0 µg
Escherichia coli = test: Antibacterial activity against Escherichia coli DH5alpha assessed as inhibition of bacterial growth at 20 ug/disk by paper disk diffusion method; assay type: functional, organism-based; details: DH5[alpha], dose 20.0 µg
Phytophthora capsici = test: Antifungal activity against Phytophthora capsici assessed as inhibition of fungal growth at 20 ug/disk by paper disk diffusion method; assay type: functional, organism-based; details: dose 20.0 µg
Valsa ambiens = test: Antifungal activity against Valsa ambiens assessed as inhibition of fungal growth at 20 ug/disk by paper disk diffusion method; assay type: functional, organism-based; details: Cytospora leucosperma; dose 20.0 µg
Pseudomonas aeruginosa = test: Antibacterial activity against Pseudomonas aeruginosa PAO1 assessed as inhibition of bacterial growth at 20 ug/disk by paper disk diffusion method; assay type: functional, organism-based; details: dose 20.0 µg
Proteus vulgaris = test: Antibacterial activity against Proteus vulgaris CPCC 160013 assessed as inhibition of bacterial growth by paper disk diffusion method; assay type: functional
Staphylococcus aureus = test: Antibacterial activity against Staphylococcus aureus ATCC 25923 assessed as inhibition of bacterial growth by paper disk diffusion method; assay type: functional
Botryosphaeria dothidea = test: Antifungal activity against Botryosphaeria dothidea assessed as inhibition of fungal growth at 20 ug/disk by paper disk diffusion method; assay type: functional, organism-based; details: dose 20.0 µg
[1] = system: Mycolicibacterium smegmatis; test: Antibacterial activity against Mycobacterium smegmatis mc2 155 assessed as inhibition of bacterial growth at 20 ug/disk by paper disk diffusion method; assay type: functional, organism-based; details: dose 20.0 µg
MDA-MB-231 = test: Cytotoxicity against human MDA-MB-231 cells assessed as reduction in cell viability by MTT assay; assay type: functional, cell-based
K562 = test: Cytotoxicity against human K562 cells assessed as reduction in cell viability by MTT assay; assay type: functional, cell-based
Rhizoctonia solani = test: Antifungal activity against Rhizoctonia solani assessed as inhibition of fungal growth at 20 ug/disk by paper disk diffusion method; assay type: functional, organism-based; details: dose 20.0 µg
NCI-H1299 = test: Cytotoxicity against human NCI-H1299 cells assessed as reduction in cell viability by MTT assay; assay type: functional, cell-based

CO[C@@H]1C[C@H](O)[C@@H](C)[C@H](O)[C@@H](C)C[C@@H](C)C(=O)C(C)[C@H](C(C)C)OC(=O)/C(C)=C/C=C/C(C)=C/C=C/C(C)=C\C[C@H](OC(=O)/C=C/C(=O)NC2=C(O)CCC2=O)[C@@H]1C (some centres undefined)
Activity (Alternaria alternata): inactive
Activity (Salmonella typhimurium): inactive
Activity (Escherichia coli): inactive
Activity (Phytophthora capsici): inactive
Activity (Valsa ambiens): inactive
Activity (Pseudomonas aeruginosa): inactive
MIC (Proteus vulgaris): 12.5 µg/mL (≈ 15.4 µM)
MIC (Staphylococcus aureus): 12.5 µg/mL (≈ 15.4 µM)
Activity (Botryosphaeria dothidea): inactive
Activity [1]: inactive
IC50 (MDA-MB-231): > 20 µM
IC50 (K562): > 20 µM
Activity (Rhizoctonia solani): inactive
IC50 (NCI-H1299): > 20 µM
